Test results as given in ChEMBL document CHEMBL4507261, “Data for DCP probe A-192621” (2021).

Assays:
[1] = target: Tyrosine-protein kinase ITK/TSK (Homo sapiens) (UniProt Q08881); settings: Compound concentration 1000.0 nM
[2] = target: Homeodomain-interacting protein kinase 1 (Homo sapiens) (UniProt Q86Z02); settings: Compound concentration 1000.0 nM
[3] = target: Serine/threonine-protein kinase MRCK gamma (Homo sapiens) (UniProt Q6DT37); settings: Compound concentration 1000.0 nM
[4] = target: NUAK family SNF1-like kinase 1 (Homo sapiens) (UniProt O60285); settings: Compound concentration 1000.0 nM
[5] = target: Serine/threonine-protein kinase TAO1 (Homo sapiens) (UniProt Q7L7X3); settings: Compound concentration 1000.0 nM
[6] = target: Cyclin-dependent kinase 11B (Homo sapiens) (UniProt P21127); settings: Compound concentration 1000.0 nM
[7] = target: Epidermal growth factor receptor (Homo sapiens) (UniProt P00533); settings: Compound concentration 1000.0 nM
[8] = target: Inhibitor of nuclear factor kappa-B kinase subunit alpha (Homo sapiens) (UniProt O15111); settings: Compound concentration 1000.0 nM
[9] = target: Cyclin-G-associated kinase (Homo sapiens) (UniProt O14976); settings: Compound concentration 1000.0 nM
[10] = target: Serine/threonine-protein kinase PAK 2 (Homo sapiens) (UniProt Q13177); settings: Compound concentration 1000.0 nM
[11] = target: Serine/threonine-protein kinase PLK1 (Homo sapiens) (UniProt P53350); settings: Compound concentration 1000.0 nM
[12] = target: Mitogen-activated protein kinase kinase kinase kinase 2 (Homo sapiens) (UniProt Q12851); settings: Compound concentration 1000.0 nM
[13] = target: Ephrin type-B receptor 1 (Homo sapiens) (UniProt P54762); settings: Compound concentration 1000.0 nM
[14] = test system: ALK tyrosine kinase receptor (Homo sapiens), Q9UM73 [C1156Y]; settings: Compound concentration 1000.0 nM
[15] = target: Cyclin-dependent kinase 7 (Homo sapiens) (UniProt P50613); settings: Compound concentration 1000.0 nM
[16] = target: Aurora kinase B (Homo sapiens) (UniProt Q96GD4); settings: Compound concentration 1000.0 nM
[17] = target: Ephrin type-A receptor 2 (Homo sapiens) (UniProt P29317); settings: Compound concentration 1000.0 nM
[18] = target: Phosphatidylinositol 5-phosphate 4-kinase type-2 gamma (Homo sapiens) (UniProt Q8TBX8); settings: Compound concentration 1000.0 nM
[19] = target: Serine/threonine-protein kinase pim-3 (Homo sapiens) (UniProt Q86V86); settings: Compound concentration 1000.0 nM
[20] = target: Receptor-interacting serine/threonine-protein kinase 1 (Homo sapiens) (UniProt Q13546); settings: Compound concentration 1000.0 nM
[21] = target: Ribosomal protein S6 kinase alpha-2 (Homo sapiens) (UniProt Q15349); settings: Compound concentration 1000.0 nM
[22] = target: Focal adhesion kinase 1 (Homo sapiens) (UniProt Q05397); settings: Compound concentration 1000.0 nM
[23] = target: Wee1-like protein kinase (Homo sapiens) (UniProt P30291); settings: Compound concentration 1000.0 nM
[24] = target: LIM domain kinase 2 (Homo sapiens) (UniProt P53671); settings: Compound concentration 1000.0 nM
[25] = target: Endothelin receptor type B (Homo sapiens) (UniProt P24530); experiment: ETB (h) Eurofins-Cerep binding assay; settings: filed as agonist, Compound concentration 10.0 uM
[26] = target: voltage-gated Na+ channel (site 2) (Rattus norvegicus, UniProt F1LQQ7+O08562+O88420+O88457+P04774+P04775+P08104+P15389+P15390+Q62968); experiment: Na+ channel (site 2) Eurofins-Cerep binding assay; design: incubation time 60 min, incubation temperature 37°C, ligand concentration 10 nM; settings: rat cerebral cortex (source of protein), probe [3H]batrachotoxin (10 nM), compound concentration 10 uM, read-out: % Inhibition of Control Specific Binding (Mean n=2)
[27] = target: Serine/threonine-protein kinase RIO2 (Homo sapiens) (UniProt Q9BVS4); settings: Compound concentration 1000.0 nM
[28] = target: Calcium/calmodulin-dependent protein kinase type II subunit beta (Homo sapiens) (UniProt Q13554); settings: Compound concentration 1000.0 nM
[29] = target: Ribosomal protein S6 kinase alpha-1 (Homo sapiens) (UniProt Q15418); settings: Compound concentration 1000.0 nM
[30] = target: T1, Alpha-1B adrenergic receptor (Homo sapiens) (UniProt P35368); experiment: Alpha1B (h) Eurofins-Cerep binding assay; settings: filed as antagonist, Compound concentration 10.0 uM
T1 sequence (whole entry): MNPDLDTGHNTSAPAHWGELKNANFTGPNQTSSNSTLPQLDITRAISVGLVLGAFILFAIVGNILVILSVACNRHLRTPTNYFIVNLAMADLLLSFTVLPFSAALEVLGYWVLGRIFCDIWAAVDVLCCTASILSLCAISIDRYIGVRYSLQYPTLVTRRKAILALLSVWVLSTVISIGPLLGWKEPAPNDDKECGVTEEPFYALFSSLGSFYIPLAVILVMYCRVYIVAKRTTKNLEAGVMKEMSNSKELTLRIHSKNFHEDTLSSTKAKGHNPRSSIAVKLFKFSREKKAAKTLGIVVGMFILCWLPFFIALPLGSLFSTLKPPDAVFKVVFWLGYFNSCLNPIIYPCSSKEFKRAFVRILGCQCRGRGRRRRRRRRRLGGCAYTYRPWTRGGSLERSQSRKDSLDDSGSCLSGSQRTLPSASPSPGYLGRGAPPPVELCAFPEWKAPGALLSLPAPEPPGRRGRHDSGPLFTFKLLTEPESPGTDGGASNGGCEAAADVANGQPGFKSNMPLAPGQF

Serine/threonine-protein kinase MRCK gamma (Homo sapiens), sequence (Q6DT37 whole entry): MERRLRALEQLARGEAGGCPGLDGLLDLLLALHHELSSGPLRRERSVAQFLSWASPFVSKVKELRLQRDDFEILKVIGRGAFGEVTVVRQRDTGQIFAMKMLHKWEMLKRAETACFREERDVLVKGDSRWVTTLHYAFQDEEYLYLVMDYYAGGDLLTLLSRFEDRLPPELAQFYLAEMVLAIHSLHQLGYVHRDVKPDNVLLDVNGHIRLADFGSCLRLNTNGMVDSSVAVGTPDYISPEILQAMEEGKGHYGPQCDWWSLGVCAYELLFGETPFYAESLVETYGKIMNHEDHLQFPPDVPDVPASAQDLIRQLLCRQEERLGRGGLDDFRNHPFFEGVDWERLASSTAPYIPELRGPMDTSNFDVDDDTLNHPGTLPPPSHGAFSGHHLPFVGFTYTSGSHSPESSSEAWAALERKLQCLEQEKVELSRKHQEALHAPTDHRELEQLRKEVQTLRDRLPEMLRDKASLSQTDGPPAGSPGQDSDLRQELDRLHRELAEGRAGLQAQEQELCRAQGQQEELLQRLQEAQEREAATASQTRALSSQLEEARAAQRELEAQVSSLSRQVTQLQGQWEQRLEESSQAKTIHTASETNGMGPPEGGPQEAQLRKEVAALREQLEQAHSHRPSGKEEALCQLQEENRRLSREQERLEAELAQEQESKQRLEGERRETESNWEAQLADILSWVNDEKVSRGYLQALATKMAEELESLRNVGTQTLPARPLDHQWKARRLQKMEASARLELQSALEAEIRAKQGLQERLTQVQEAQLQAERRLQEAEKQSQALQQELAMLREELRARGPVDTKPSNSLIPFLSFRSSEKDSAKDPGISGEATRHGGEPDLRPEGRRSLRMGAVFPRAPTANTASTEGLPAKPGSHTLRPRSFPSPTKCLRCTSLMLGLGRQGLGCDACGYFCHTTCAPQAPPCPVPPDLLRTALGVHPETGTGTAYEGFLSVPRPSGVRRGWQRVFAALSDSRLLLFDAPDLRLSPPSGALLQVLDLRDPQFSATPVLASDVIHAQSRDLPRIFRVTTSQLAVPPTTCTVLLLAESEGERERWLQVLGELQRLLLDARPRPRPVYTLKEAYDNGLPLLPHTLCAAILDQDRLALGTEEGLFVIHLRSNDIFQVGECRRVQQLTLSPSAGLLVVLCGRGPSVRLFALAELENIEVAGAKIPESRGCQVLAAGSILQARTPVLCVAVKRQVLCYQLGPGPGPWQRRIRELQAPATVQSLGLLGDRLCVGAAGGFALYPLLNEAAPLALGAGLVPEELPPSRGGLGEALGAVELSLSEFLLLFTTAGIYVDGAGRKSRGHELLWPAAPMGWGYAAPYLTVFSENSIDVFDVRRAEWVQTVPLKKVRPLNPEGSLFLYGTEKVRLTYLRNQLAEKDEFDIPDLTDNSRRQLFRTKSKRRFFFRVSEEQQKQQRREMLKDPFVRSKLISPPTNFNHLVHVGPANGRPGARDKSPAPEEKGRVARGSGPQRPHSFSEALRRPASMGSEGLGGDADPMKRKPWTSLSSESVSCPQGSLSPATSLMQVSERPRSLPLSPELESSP
Tyrosine-protein kinase ITK/TSK (Homo sapiens), sequence (Q08881 whole entry): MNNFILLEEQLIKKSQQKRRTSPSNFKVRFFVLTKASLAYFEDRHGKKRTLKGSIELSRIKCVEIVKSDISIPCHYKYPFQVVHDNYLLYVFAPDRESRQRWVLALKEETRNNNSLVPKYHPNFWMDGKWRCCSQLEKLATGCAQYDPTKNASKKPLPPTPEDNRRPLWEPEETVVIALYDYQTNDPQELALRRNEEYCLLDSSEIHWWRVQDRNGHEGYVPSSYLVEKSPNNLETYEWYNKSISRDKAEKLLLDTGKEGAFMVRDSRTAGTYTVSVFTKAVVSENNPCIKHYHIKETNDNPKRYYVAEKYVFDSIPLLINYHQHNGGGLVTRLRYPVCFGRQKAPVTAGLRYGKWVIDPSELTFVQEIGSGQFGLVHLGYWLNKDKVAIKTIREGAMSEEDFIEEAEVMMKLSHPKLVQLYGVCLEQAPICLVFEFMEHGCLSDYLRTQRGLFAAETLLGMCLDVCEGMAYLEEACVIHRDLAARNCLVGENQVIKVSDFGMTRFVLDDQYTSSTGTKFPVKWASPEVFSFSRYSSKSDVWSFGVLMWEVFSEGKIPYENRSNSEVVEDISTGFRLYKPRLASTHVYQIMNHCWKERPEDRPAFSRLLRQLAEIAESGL
Endothelin receptor type B (Homo sapiens), sequence (P24530 whole entry): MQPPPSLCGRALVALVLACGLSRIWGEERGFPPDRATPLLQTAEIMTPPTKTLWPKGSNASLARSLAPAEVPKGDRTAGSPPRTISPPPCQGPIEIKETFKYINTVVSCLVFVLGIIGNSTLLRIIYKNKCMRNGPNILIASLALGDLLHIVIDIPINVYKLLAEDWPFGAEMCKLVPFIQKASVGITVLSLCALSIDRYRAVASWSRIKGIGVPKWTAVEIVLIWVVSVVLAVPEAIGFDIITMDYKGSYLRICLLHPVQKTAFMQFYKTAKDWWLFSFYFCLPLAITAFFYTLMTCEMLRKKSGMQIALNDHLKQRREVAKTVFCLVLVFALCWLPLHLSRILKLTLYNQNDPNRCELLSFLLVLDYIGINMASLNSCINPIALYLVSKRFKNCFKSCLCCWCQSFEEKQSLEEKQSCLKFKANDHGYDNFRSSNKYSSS
Serine/threonine-protein kinase RIO2 (Homo sapiens), sequence (Q9BVS4 whole entry, looked up): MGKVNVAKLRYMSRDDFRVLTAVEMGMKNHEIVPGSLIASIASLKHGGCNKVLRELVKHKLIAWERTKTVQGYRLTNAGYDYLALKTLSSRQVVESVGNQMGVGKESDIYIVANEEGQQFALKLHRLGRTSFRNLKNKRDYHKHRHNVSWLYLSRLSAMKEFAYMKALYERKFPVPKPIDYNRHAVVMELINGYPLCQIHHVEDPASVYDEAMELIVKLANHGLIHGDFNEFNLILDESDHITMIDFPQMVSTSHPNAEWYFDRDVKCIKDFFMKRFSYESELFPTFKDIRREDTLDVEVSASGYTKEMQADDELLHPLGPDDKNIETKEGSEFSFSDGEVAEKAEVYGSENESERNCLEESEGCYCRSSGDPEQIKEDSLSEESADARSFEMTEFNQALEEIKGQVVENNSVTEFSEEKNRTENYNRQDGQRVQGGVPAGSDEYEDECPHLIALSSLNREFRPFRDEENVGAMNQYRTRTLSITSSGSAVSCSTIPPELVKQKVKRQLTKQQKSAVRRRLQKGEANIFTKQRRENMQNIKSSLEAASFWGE
Focal adhesion kinase 1 (Homo sapiens), sequence (Q05397 2-1052 limits assumed): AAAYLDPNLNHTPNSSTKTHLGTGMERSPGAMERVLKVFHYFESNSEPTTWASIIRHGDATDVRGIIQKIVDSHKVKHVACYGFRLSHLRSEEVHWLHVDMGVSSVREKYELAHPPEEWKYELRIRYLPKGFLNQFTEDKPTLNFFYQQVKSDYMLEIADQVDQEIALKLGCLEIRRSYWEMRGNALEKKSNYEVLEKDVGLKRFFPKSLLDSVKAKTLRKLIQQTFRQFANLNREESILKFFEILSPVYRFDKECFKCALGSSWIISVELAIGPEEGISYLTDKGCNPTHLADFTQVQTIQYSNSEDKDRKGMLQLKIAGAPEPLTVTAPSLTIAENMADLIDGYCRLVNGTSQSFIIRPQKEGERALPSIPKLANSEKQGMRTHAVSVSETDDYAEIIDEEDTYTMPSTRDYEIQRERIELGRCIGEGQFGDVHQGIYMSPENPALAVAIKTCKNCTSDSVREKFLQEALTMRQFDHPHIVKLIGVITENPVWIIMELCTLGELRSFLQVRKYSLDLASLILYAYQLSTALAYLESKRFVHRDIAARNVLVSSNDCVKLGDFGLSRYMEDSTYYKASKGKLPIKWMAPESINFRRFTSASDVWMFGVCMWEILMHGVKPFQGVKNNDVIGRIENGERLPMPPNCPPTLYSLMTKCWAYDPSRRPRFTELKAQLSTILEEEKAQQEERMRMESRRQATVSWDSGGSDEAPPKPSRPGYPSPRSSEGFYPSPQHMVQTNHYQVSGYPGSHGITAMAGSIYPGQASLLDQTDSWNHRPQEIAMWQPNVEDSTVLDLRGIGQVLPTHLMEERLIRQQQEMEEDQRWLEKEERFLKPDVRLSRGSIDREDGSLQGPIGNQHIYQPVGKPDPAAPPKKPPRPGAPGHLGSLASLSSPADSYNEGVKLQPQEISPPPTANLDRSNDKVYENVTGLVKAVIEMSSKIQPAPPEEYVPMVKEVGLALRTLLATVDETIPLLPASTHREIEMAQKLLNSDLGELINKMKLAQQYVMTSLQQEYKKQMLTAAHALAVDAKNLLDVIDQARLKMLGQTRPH
Serine/threonine-protein kinase PLK1 (Homo sapiens), sequence (P53350 whole entry): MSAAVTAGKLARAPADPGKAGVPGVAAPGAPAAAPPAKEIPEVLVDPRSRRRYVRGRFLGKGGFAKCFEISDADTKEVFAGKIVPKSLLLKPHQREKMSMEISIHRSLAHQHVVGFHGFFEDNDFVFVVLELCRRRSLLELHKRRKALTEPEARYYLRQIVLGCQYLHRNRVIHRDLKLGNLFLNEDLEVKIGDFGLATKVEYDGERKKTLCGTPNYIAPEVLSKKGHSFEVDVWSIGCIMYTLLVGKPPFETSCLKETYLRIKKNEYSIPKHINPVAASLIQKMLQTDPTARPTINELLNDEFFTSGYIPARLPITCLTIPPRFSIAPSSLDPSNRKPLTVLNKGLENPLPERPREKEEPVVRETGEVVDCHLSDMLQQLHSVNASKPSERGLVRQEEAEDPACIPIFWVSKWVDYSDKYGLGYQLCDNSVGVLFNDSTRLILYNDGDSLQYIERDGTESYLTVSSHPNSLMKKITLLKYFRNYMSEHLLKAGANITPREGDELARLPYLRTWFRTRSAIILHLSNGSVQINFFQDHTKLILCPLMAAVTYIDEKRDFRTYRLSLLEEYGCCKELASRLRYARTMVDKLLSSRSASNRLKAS

CCCOc1ccc([C@H]2[C@H](C(=O)O)[C@@H](c3ccc4c(c3)OCO4)CN2CC(=O)Nc2c(CC)cccc2CC)cc1 [A-192621]
residual activity [1]: 96%
residual activity [2]: 75%
residual activity [3]: 79%
residual activity [4]: 83%
residual activity [5]: 84%
residual activity [6]: 100%
residual activity [7]: 100%
residual activity [8]: 77%
residual activity [9]: 93%
residual activity [10]: 94%
residual activity [11]: 80%
residual activity [12]: 79%
residual activity [13]: 100%
residual activity [14]: 98%
residual activity [15]: 78%
residual activity [16]: 72%
residual activity [17]: 100%
residual activity [18]: 49%
residual activity [19]: 88%
residual activity [20]: 88%
residual activity [21]: 93%
residual activity [22]: 86%
residual activity [23]: 93%
residual activity [24]: 100%
% Inhibition of Control Specific Binding (Mean n=2) [25]: 94.7%
inhibition at 60 min, 10 µM [26]: 29.1%
residual activity [27]: 71%
residual activity [28]: 99%
residual activity [29]: 87%
% Inhibition of Control Specific Binding (Mean n=2) [30]: 3.2%

CCCOc1ccc([C@@H]2[C@@H](C(=O)O)[C@H](c3ccc4c(c3)OCO4)CN2CC(=O)Nc2c(CC)cccc2CC)cc1 [A-1806262]
residual activity [1]: 100%
residual activity [2]: 79%
residual activity [3]: 57%
residual activity [4]: 99%
residual activity [5]: 100%
residual activity [6]: 94%
residual activity [7]: 87%
residual activity [8]: 86%
residual activity [9]: 98%
residual activity [10]: 100%
residual activity [11]: 95%
residual activity [12]: 98%
residual activity [13]: 91%
residual activity [14]: 79%
residual activity [15]: 86%
residual activity [16]: 77%
residual activity [17]: 100%
residual activity [18]: 94%
residual activity [19]: 95%
residual activity [20]: 55%
residual activity [21]: 100%
residual activity [22]: 88%
residual activity [23]: 95%
residual activity [24]: 64%
% Inhibition of Control Specific Binding (Mean n=2) [25]: 96.7%
inhibition at 60 min, 10 µM [26]: 24.4%
residual activity [27]: 98%
residual activity [28]: 88%
residual activity [29]: 100%
% Inhibition of Control Specific Binding (Mean n=2) [30]: 3.1%
